Laboratory results: ChEMBL document CHEMBL1147193, “New 5-substituted thiazolo[3,2-b][1,2,4]triazol-6-ones: synthesis and anticancer evaluation” (2007)
Each block holds one compound with its values, some of them ahead of it.

Experiments:
Assay type in all cases: functional
OVCAR-5 = assay: Growth inhibition of human OVCAR5 cells after 48 hrs by SRB protein assay; details: OVCAR-5, 48 h; for TGI: read-out: Log TGI (converted)
OVCAR-8 = assay: Growth inhibition of human OVCAR8 cells after 48 hrs by SRB protein assay; details: OVCAR-8, 48 h; for TGI: read-out: Log TGI (converted)
SK-OV-3 = assay: Growth inhibition of human SK-OV-3 cells after 48 hrs by SRB protein assay; details: SK-OV-3, 48 h; for TGI: read-out: Log TGI (converted)
A549 = assay: Growth inhibition of human A549/ATCC cells after 48 hrs by SRB protein assay; details: A549, 48 h; for TGI: read-out: Log TGI (converted)
IGROV-1 = assay: Growth inhibition of human IGROV1 cells after 48 hrs by SRB protein assay; details: IGROV-1, 48 h; for TGI: read-out: Log TGI (converted)
CCRF-CEM = assay: Growth inhibition of human CCRF-CEM cells after 48 hrs by SRB protein assay
BT-549 = assay: Growth inhibition of human BT549 cells after 48 hrs by SRB protein assay; details: BT-549, 48 h; for TGI: read-out: Log TGI (converted)
Hs-578T = assay: Growth inhibition of human HS578T cells after 48 hrs by SRB protein assay; details: for TGI: read-out: Log TGI (converted)
RPMI-8226 = assay: Growth inhibition of human RPMI8226 cells after 48 hrs by SRB protein assay; details: RPMI-8226, 48 h; for TGI: read-out: Log TGI (converted)
MCF7 [1] = assay: Anticancer activity against human MCF7 cells assessed as growth of cells at 100 uM relative to untreated cells
K562 = assay: Growth inhibition of human K562 cells after 48 hrs by SRB protein assay; details: K562, 48 h; for TGI: read-out: Log TGI (converted)
MOLT-4 = assay: Growth inhibition of human MOLT4 cells after 48 hrs by SRB protein assay; details: MOLT-4, 48 h; for TGI: read-out: Log TGI (converted)
EKVX = assay: Growth inhibition of human EKVX cells after 48 hrs by SRB protein assay; details: for TGI: read-out: Log TGI (converted)
HOP-62 = assay: Growth inhibition of human HOP62 cells after 48 hrs by SRB protein assay; details: HOP-62, 48 h; for TGI: read-out: Log TGI (converted)
HOP-92 = assay: Growth inhibition of human HOP92 cells after 48 hrs by SRB protein assay; details: HOP-92, 48 h; for TGI: read-out: Log TGI (converted)
NCI-H226 = assay: Growth inhibition of human NCI-H226 cells after 48 hrs by SRB protein assay; details: NCI-H226, 48 h; for TGI: read-out: Log TGI (converted)
NCI-H322M = assay: Growth inhibition of human NCI-H322M cells after 48 hrs by SRB protein assay; details: for TGI: read-out: Log TGI (converted)
NCI-H460 = assay: Growth inhibition of human NCI-H460 cells after 48 hrs by SRB protein assay; details: NCI-H460, 48 h; for TGI: read-out: Log TGI (converted)
NCI-H522 = assay: Growth inhibition of human NCI-H522 cells after 48 hrs by SRB protein assay; details: NCI-H522, 48 h; for TGI: read-out: Log TGI (converted)
COLO 205 = assay: Growth inhibition of human COLO205 cells after 48 hrs by SRB protein assay; details: COLO 205, 48 h; for TGI: read-out: Log TGI (converted)
HCC 2998 = assay: Growth inhibition of human HCC2998 cells after 48 hrs by SRB protein assay; details: HCC 2998, 48 h; for TGI: read-out: Log TGI (converted)
HCT-116 = assay: Growth inhibition of human HCT116 cells after 48 hrs by SRB protein assay; details: HCT-116, 48 h; for TGI: read-out: Log TGI (converted)
HCT-15 = assay: Growth inhibition of human HCT15 cells after 48 hrs by SRB protein assay; details: HCT-15, 48 h; for TGI: read-out: Log TGI (converted)
KM12 = assay: Growth inhibition of human KM12 cells after 48 hrs by SRB protein assay; details: KM12, 48 h; for TGI: read-out: Log TGI (converted)
SF-295 = assay: Growth inhibition of human SF295 cells after 48 hrs by SRB protein assay; details: SF-295, 48 h; for TGI: read-out: Log TGI (converted)
U-251 = assay: Growth inhibition of human U251 cells after 48 hrs by SRB protein assay; details: U-251, 48 h; for TGI: read-out: Log TGI (converted)
[2] = Growth inhibition of human MALME 3M cells after 48 hrs by SRB protein assay; details: for TGI: read-out: Log TGI (converted)
M14 = assay: Growth inhibition of human M14 cells after 48 hrs by SRB protein assay; details: M14, 48 h; for TGI: read-out: Log TGI (converted)
SK-MEL-2 = assay: Growth inhibition of human SK-MEL-2 cells after 48 hrs by SRB protein assay; details: SK-MEL-2, 48 h; for TGI: read-out: Log TGI (converted)
SK-MEL-5 = assay: Growth inhibition of human SK-MEL-5 cells after 48 hrs by SRB protein assay; details: SK-MEL-5, 48 h; for TGI: read-out: Log TGI (converted)
UACC-257 = assay: Growth inhibition of human UACC257 cells after 48 hrs by SRB protein assay; details: UACC-257, 48 h; for TGI: read-out: Log TGI (converted)
UACC-62 = assay: Growth inhibition of human UACC62 cells after 48 hrs by SRB protein assay; details: UACC-62, 48 h; for TGI: read-out: Log TGI (converted)
RXF 393 = assay: Growth inhibition of human RXF393 cells after 48 hrs by SRB protein assay; details: RXF 393, 48 h; for TGI: read-out: Log TGI (converted)
TK-10 = assay: Growth inhibition of human TK10 cells after 48 hrs by SRB protein assay; details: TK-10, 48 h; for TGI: read-out: Log TGI (converted)
UO-31 = assay: Growth inhibition of human UO31 cells after 48 hrs by SRB protein assay; details: UO-31, 48 h; for TGI: read-out: Log TGI (converted)
MCF7 [3] = assay: Growth inhibition of human MCF7 cells after 48 hrs by SRB protein assay; details: MCF7, 48 h; for TGI: read-out: Log TGI (converted)
NCI/ADR-RES = assay: Growth inhibition of human NCI/ADR-RES cells after 48 hrs by SRB protein assay; details: for TGI: read-out: Log TGI (converted)
MDA-MB-435 = assay: Growth inhibition of human MDA-MB-435 cells after 48 hrs by SRB protein assay; details: MDA-MB-435, 48 h; for TGI: read-out: Log TGI (converted)
[4] = Growth inhibition of human MDA-MB-231/ATCC cells after 48 hrs by SRB protein assay; details: MDA-MB-231, 48 h; for TGI: read-out: Log TGI (converted)

GI50 (OVCAR-5): 22.4 µM
GI50 (OVCAR-8): > 100 µM
GI50 (SK-OV-3): > 100 µM
GI50 (A549): > 100 µM
GI50 (CCRF-CEM): 19.1 µM
GI50 (BT-549): 37.2 µM
GI50 (RPMI-8226): 24 µM
GI50 (K562): 19.1 µM
GI50 (MOLT-4): 20 µM
GI50 (NCI-H226): 91.2 µM
GI50 (NCI-H322M): > 100 µM
GI50 (NCI-H460): > 100 µM
GI50 (NCI-H522): 26.9 µM
GI50 (COLO 205): 19.5 µM
GI50 (HCC 2998): 38 µM
GI50 (HCT-116): 20 µM
GI50 (HCT-15): 15.8 µM
GI50 (U-251): 18.2 µM
GI50 (SK-MEL-2): > 100 µM
GI50 (SK-MEL-5): > 100 µM
GI50 (MCF7 [3]): 43.7 µM
GI50 (MDA-MB-435): 55 µM
Structure (SMILES): O=C(CC1Sc2ncnn2C1=O)Nc1ccc(Cl)cc1 (configuration not stated)
TGI (OVCAR-5): 56.2 µM
TGI (OVCAR-8): > 100 µM
TGI (SK-OV-3): > 100 µM
TGI (A549): > 100 µM
GI50 (IGROV-1): > 100 µM
TGI (IGROV-1): > 100 µM
TGI (CCRF-CEM; read-out: Log TGI (converted)): 41.7 µM
TGI (BT-549): 95.5 µM
GI50 (Hs-578T): > 100 µM
TGI (Hs-578T): > 100 µM
TGI (RPMI-8226): 100 µM
Activity (MCF7 [1]): 0%
TGI (K562): 43.7 µM
TGI (MOLT-4): 47.9 µM
GI50 (EKVX): > 100 µM
TGI (EKVX): > 100 µM
GI50 (HOP-62): > 100 µM
TGI (HOP-62): > 100 µM
GI50 (HOP-92): 25.1 µM
TGI (HOP-92): 64.6 µM
TGI (NCI-H226): > 100 µM
TGI (NCI-H322M): > 100 µM
TGI (NCI-H460): > 100 µM
TGI (NCI-H522): 64.6 µM
TGI (COLO 205): 47.9 µM
TGI (HCC 2998): > 100 µM
TGI (HCT-116): 30.9 µM
TGI (HCT-15): 40.7 µM
GI50 (KM12): > 100 µM
TGI (KM12): > 100 µM
GI50 (SF-295): > 100 µM
TGI (SF-295): > 100 µM
TGI (U-251): 33.9 µM
GI50 [2]: 14.8 µM
TGI [2]: 38.9 µM
GI50 (M14): 35.5 µM
TGI (M14): > 100 µM
TGI (SK-MEL-2): > 100 µM
TGI (SK-MEL-5): > 100 µM
GI50 (UACC-257): 40.7 µM
TGI (UACC-257): > 100 µM
GI50 (UACC-62): > 100 µM
TGI (UACC-62): > 100 µM
GI50 (RXF 393): 25.1 µM
TGI (RXF 393): 51.3 µM
GI50 (TK-10): 20.9 µM
TGI (TK-10): 39.8 µM
GI50 (UO-31): 22.9 µM
TGI (UO-31): 45.7 µM
TGI (MCF7 [3]): > 100 µM
GI50 (NCI/ADR-RES): 38 µM
TGI (NCI/ADR-RES): > 100 µM
TGI (MDA-MB-435): > 100 µM
GI50 [4]: 31.6 µM
TGI [4]: 83.2 µM

GI50 (OVCAR-5): 55 µM
GI50 (OVCAR-8): 44.7 µM
GI50 (SK-OV-3): > 100 µM
GI50 (A549): 87.1 µM
GI50 (BT-549): 42.7 µM
GI50 (RPMI-8226): 26.3 µM
GI50 (K562): 38.9 µM
GI50 (MOLT-4): 38.9 µM
GI50 (NCI-H226): > 100 µM
GI50 (NCI-H322M): > 100 µM
GI50 (NCI-H460): 61.7 µM
GI50 (NCI-H522): 50.1 µM
GI50 (COLO 205): 61.7 µM
GI50 (HCC 2998): 63.1 µM
GI50 (HCT-116): 33.9 µM
GI50 (HCT-15): 63.1 µM
GI50 (U-251): 60.3 µM
GI50 (SK-MEL-2): > 100 µM
GI50 (SK-MEL-5): 41.7 µM
GI50 (MCF7 [3]): 32.4 µM
GI50 (MDA-MB-435): 37.2 µM
Structure (SMILES): O=c1/c(=C/c2ccc(F)cc2)sc2ncnn12
TGI (OVCAR-5): > 100 µM
TGI (OVCAR-8): > 100 µM
TGI (SK-OV-3): > 100 µM
TGI (A549): > 100 µM
GI50 (IGROV-1): 57.5 µM
TGI (IGROV-1): > 100 µM
TGI (BT-549): 100 µM
GI50 (Hs-578T): 69.2 µM
TGI (Hs-578T): > 100 µM
TGI (RPMI-8226): 79.4 µM
Activity (MCF7 [1]): 77%
TGI (K562): > 100 µM
TGI (MOLT-4): > 100 µM
GI50 (EKVX): 83.2 µM
TGI (EKVX): > 100 µM
GI50 (HOP-62): 70.8 µM
TGI (HOP-62): > 100 µM
GI50 (HOP-92): 47.9 µM
TGI (HOP-92): > 100 µM
TGI (NCI-H226): > 100 µM
TGI (NCI-H322M): > 100 µM
TGI (NCI-H460): > 100 µM
TGI (NCI-H522): > 100 µM
TGI (COLO 205): > 100 µM
TGI (HCC 2998): > 100 µM
TGI (HCT-116): > 100 µM
TGI (HCT-15): > 100 µM
GI50 (KM12): 35.5 µM
TGI (KM12): > 100 µM
GI50 (SF-295): 52.5 µM
TGI (SF-295): > 100 µM
TGI (U-251): > 100 µM
GI50 [2]: > 100 µM
TGI [2]: > 100 µM
GI50 (M14): 28.8 µM
TGI (M14): > 100 µM
TGI (SK-MEL-2): 51.3 µM
TGI (SK-MEL-5): > 100 µM
GI50 (UACC-257): 95.5 µM
TGI (UACC-257): > 100 µM
GI50 (UACC-62): 66.1 µM
TGI (UACC-62): > 100 µM
GI50 (RXF 393): 46.8 µM
TGI (RXF 393): 100 µM
GI50 (TK-10): > 100 µM
TGI (TK-10): > 100 µM
GI50 (UO-31): 69.2 µM
TGI (UO-31): > 100 µM
TGI (MCF7 [3]): > 100 µM
GI50 (NCI/ADR-RES): 38 µM
TGI (NCI/ADR-RES): > 100 µM
TGI (MDA-MB-435): > 100 µM
GI50 [4]: > 100 µM
TGI [4]: > 100 µM
